# Earlier results as cited in US20110033519A1, “Device with Aromatase Inhibitor for the Treatment and Prevention of Uterine Fibroids and Method of Use” (priority 2009, published 2011).
# Like-named read-outs stand apart in the source and are kept apart here.
# Experiments:
# [1] = test system: fibroids; details: three months
# [2] = test system: human sperm; details: incubated in a solution of copper ions; after 120 minutes
molecule,measurement,setting,value
CC(C)(C#N)c1cc(Cn2cncn2)cc(C(C)(C)C#N)c1 [Anastrozole],reduction in fibroid volume,"[1]; oral, 1 mg/day",56%
N#Cc1ccc(C(c2ccc(C#N)cc2)n2cncn2)cc1 [Letrozole],reduction in fibroid volume,"[1]; study of 35 women, 2.5 mg per day orally",45%
same,reduction in fibroid volume,"[1]; trial of 16 women, oral, 5 mg/day",47%
copper ions,human sperm immotile,[2],Ninety-five
